{
  "source": "patent US11629139B2",
  "about": "(priority 2017, dated 2023)",
  "key": {"in vitro [1]": {"assay": "in vitro", "details": "mouse, plasma"}, "Ebola virus (Mayinga)": {"test_system": "Ebola virus (Mayinga)", "assay": "microbe, parasite or virus in culture", "format": "cell-based", "details": "Zaire ebolavirus, HeLa, read-out: EBOV Maiynga) (Hela) EC50"}, "[2]": {"details": "mouse, in vivo; for AUClast / T1/2 / Tmax: po, 50 mg/kg"}, "EBOV Kikwit": {"test_system": "EBOV Kikwit", "assay": "microbe, parasite or virus in culture", "format": "cell-based, Ebola virus", "details": "Zaire ebolavirus, HeLa, read-out: EBOV Kikwit(Hela) EC50"}, "EBOV Makona": {"test_system": "EBOV Makona", "assay": "microbe, parasite or virus in culture", "format": "cell-based, Ebola virus", "details": "Zaire ebolavirus, HeLa, read-out: EBOV Makona (Hela) EC50"}, "in vivo": {"assay": "in vivo", "details": "mouse, po"}, "EBOV G-A82": {"test_system": "EBOV G-A82", "assay": "microbe, parasite or virus in culture", "format": "cell-based, Ebola virus", "details": "Zaire ebolavirus, HeLa, read-out: EBOV G-A82 (Hela) EC50"}, "[3]": {"details": "for m-μsome T1/2 (with 3 μM of Ritonavir) / MLM T½ / MLM, T½ (min) (ritonavir 3 μM): mouse, microsomes"}, "[4]": {"details": "human, microsomes"}, "[5]": {"details": "pH 7.4"}, "[6]": {"details": "plasma"}, "[7]": {"test_system": "Lassa fever virus (LFV) GP", "details": "cited from earlier work"}, "VSV G": {"test_system": "VSV G", "details": "cited from earlier work"}, "[8]": {"test_system": "vesicular stomatitis virus particles (VSV) pseudotyped with EboV Zaire GP", "details": "cited from earlier work"}, "in vitro [9]": {"assay": "in vitro", "details": "mouse, microsomes, pH 7.4, MLM T½ (min)"}, "[10]": {"test_system": "vesicular stomatitis virus particles (VSV) pseudotyped with EboV Zaire GP", "assay": "microbe, parasite or virus in culture", "format": "cell-based", "details": "Vesicular stomatitis virus"}, "physchem": {"assay": "physchem", "details": "pH 7.4, aqueous buffer, kinetic from dmso stock"}},
  "note": "Like-named read-outs stand apart in the source and are kept apart here.",
  "data": [
    {"compound": "CS(=O)(=O)c1ccc(COc2ccc(Cl)cc2CN2CCN(C(=O)CNC(=O)C3CC34CCC(F)(F)CC4)CC2)cc1", "note": "(centres unmarked) [Compound 1476]", "values": [
      {"measurement": "fraction unbound", "setting": "in vitro [1]; m-plasma protein binding", "result": 0.013},
      {"measurement": "EC50", "setting": "Ebola virus (Mayinga)", "result": 420, "unit": "nM"},
      {"measurement": "C@12 hr", "setting": "[2]", "result": 14, "unit": "µM"},
      {"measurement": "EC50", "setting": "EBOV Kikwit", "result": 210, "unit": "nM"},
      {"measurement": "EC50", "setting": "EBOV Makona", "result": 140, "unit": "nM"},
      {"measurement": "AUC", "setting": "in vivo", "result": 314, "unit": "µM·h"},
      {"measurement": "Cmax", "setting": "in vivo", "result": 23, "unit": "µM"},
      {"measurement": "half-life", "setting": "in vivo", "result": 6.1, "unit": "h"},
      {"measurement": "EC50", "setting": "EBOV G-A82", "result": "< 80", "unit": "nM"},
      {"measurement": "m-μsome T1/2 (with 3 μM of Ritonavir)", "setting": "[3]; pH 7.4", "result": 2.83, "unit": "h"}
    ]},
    {"compound": "[2H]C([2H])(c1cc(Cl)ccc1N)N1CCN(C(=O)CNC(=O)C2CC23CCC(F)(F)CC3)CC1", "note": "(single isomer, unassigned; (-)) [(−)-1413]", "values": [
      {"measurement": "C@12 hr", "setting": "[2]", "result": 2.0, "unit": "µM"},
      {"measurement": "Cl_obs", "setting": "[2]", "result": 15.5, "unit": "mL/min/kg"},
      {"measurement": "AUClast", "setting": "[2]", "result": 120.9, "unit": "µM·h"},
      {"measurement": "T1/2", "setting": "[2]", "result": 3.2, "unit": "h"},
      {"measurement": "Tmax", "setting": "[2]", "result": 1.7, "unit": "h"},
      {"measurement": "HLM T½", "setting": "[4]", "result": 0.267, "unit": "h"},
      {"measurement": "Kinetic solubility", "setting": "[5]", "result": 78, "unit": "µM"},
      {"measurement": "Mouse PPB (% bound)", "setting": "[6]", "result": 87.9, "unit": "%"},
      {"measurement": "Increase of stability in mouse liver microsomes by ritonavir", "setting": "[3]", "result": "10- to 30 fold"},
      {"measurement": "MLM T½", "setting": "[3]", "result": 3, "unit": "min"},
      {"measurement": "MLM, T½ (min) (ritonavir 3 μM)", "setting": "[3]", "result": 91, "unit": "min"}
    ]},
    {"compound": "O=C(CC12CC3CC(CC(C3)C1)C2)NCC(=O)N1CCN(Cc2ccccc2)CC1", "note": "[Compound 3.0]", "values": [
      {"measurement": "Infection of Vero cells by VSV pseudotyped with Lassa fever virus (LFV) GP", "setting": "[7]", "result": "not"},
      {"measurement": "Infection of Vero cells by VSV particles with VSV G", "setting": "VSV G", "result": "not"},
      {"measurement": "Infection of Vero cells by VSV pseudotyped with EboV Zaire GP", "setting": "[8]", "result": "inhibits infection"}
    ]},
    {"compound": "CS(=O)(=O)c1ccc(CNc2ccc(Cl)cc2CN2CCN(C(=O)CNC(=O)C3CC34CCC(F)(F)CC4)CC2)cc1", "note": "(centres unmarked) [Compound 1478]", "values": [
      {"measurement": "fraction unbound", "setting": "in vitro [1]; m-plasma protein binding", "result": 0.001},
      {"measurement": "EC50", "setting": "Ebola virus (Mayinga)", "result": 35, "unit": "nM"},
      {"measurement": "EC50", "setting": "EBOV Kikwit", "result": 9, "unit": "nM"},
      {"measurement": "EC50", "setting": "EBOV Makona", "result": 17, "unit": "nM"},
      {"measurement": "m-μsome T1/2 (with 3 μM of Ritonavir)", "setting": "[3]; pH 7.4", "result": 2.13, "unit": "h"}
    ]},
    {"compound": "COC(=O)c1ccc(COc2ccccc2CN2CCN(C(=O)CNC(=O)CC34CC5CC(CC(C5)C3)C4)CC2)cc1", "note": "[Compound 3.47, reference compound]", "values": [
      {"measurement": "Concentration required to reduce cell viability by 50%", "setting": "cell viability", "result": "exceeded 10 μM"},
      {"measurement": "Potency against EboV GP-dependent infection", "setting": "[8]", "result": "increased potency"}
    ]},
    {"compound": "[2H]C([2H])(c1cc(Cl)ccc1NCc1ccc(S(C)(=O)=O)cc1)N1CCN(C(=O)CNC(=O)C2CC23CCC(F)(F)CC3)CC1", "note": "(single isomer, unassigned; (-)) [(−)-1503]", "values": [
      {"measurement": "C@12 hr", "setting": "[2]", "result": 5.7, "unit": "µM"},
      {"measurement": "Cl_obs", "setting": "[2]", "result": 12.5, "unit": "mL/min/kg"},
      {"measurement": "Plasma concentration after 12 hours relative to in vitro IC50 against rVSV EBOV infection in 50% human serum", "setting": "[2]", "result": 50, "unit": "fold"},
      {"measurement": "AUClast", "setting": "[2]", "result": 107.5, "unit": "µM·h"},
      {"measurement": "T1/2", "setting": "[2]", "result": 1.7, "unit": "h"},
      {"measurement": "Tmax", "setting": "[2]", "result": 7.3, "unit": "h"},
      {"measurement": "HLM T½", "setting": "[4]", "result": 0.017, "unit": "h"},
      {"measurement": "Kinetic solubility", "setting": "[5]", "result": 4, "unit": "µM"},
      {"measurement": "Mouse PPB (% bound)", "setting": "[6]", "result": 99.8, "unit": "%"},
      {"measurement": "MLM T½", "setting": "[3]", "result": 2, "unit": "min"},
      {"measurement": "MLM, T½ (min) (ritonavir 3 μM)", "setting": "[3]", "result": 87, "unit": "min"}
    ]},
    {"compound": "O=C(CC12CC3CC(CC(C3)C1)C2)NCC(=O)N1CCN(Cc2ccccc2OCc2ccc(-c3ncco3)cc2)CC1", "note": "[Compound 1803, 2-((3r,5r,7r)-Adamantan-1-yl)-N-(2-(4-(2-((4-(oxazol-2-yl)benzyl)oxy)benzyl)piperazin-1-yl)-2-oxoethyl)acetamide]", "values": [
      {"measurement": "fraction unbound", "setting": "in vitro [1]; Mouse PPB (% bound)", "result": 0.003},
      {"measurement": "half-life", "setting": "in vitro [9]", "result": 1, "unit": "min"},
      {"measurement": "IC50", "setting": "[10]", "result": 270, "unit": "nM"},
      {"measurement": "solubility kinetic", "setting": "physchem", "result": 5, "unit": "µM"},
      {"measurement": "Mouse plasma stability (% at 4 hours)", "result": 37, "unit": "%"}
    ]},
    {"compound": "CS(=O)(=O)c1ccc(COc2ccc(Cl)cc2CN2CCN(C(=O)CNC(=O)CC3CCC(F)(F)CC3)CC2)cc1", "note": "[Compound 1458]", "values": [
      {"measurement": "IC50", "setting": "[10]", "result": 9, "unit": "nM"},
      {"measurement": "Mouse plasma stability (% at 4 hours)", "result": 30, "unit": "%"},
      {"measurement": "MLM, T½ (min) (ritonavir 3 μM)", "setting": "[3]; pH 7.4", "result": ">120", "unit": "min"}
    ]},
    {"compound": "CS(=O)(=O)c1ccc(CNc2ccc(Cl)cc2CN2CCN(C(=O)CNC(=O)CC3CCC(F)(F)CC3)CC2)cc1", "note": "[Compound 1477]", "values": [
      {"measurement": "fraction unbound", "setting": "in vitro [1]; m-plasma protein binding", "result": 0.001},
      {"measurement": "EC50", "setting": "Ebola virus (Mayinga)", "result": 33, "unit": "nM"},
      {"measurement": "EC50", "setting": "EBOV Kikwit", "result": 12, "unit": "nM"},
      {"measurement": "EC50", "setting": "EBOV Makona", "result": 52, "unit": "nM"},
      {"measurement": "Concentration required to reduce cell viability by 50%", "setting": "cell viability", "result": "exceeded 10 μM"},
      {"measurement": "m-μsome T1/2 (with 3 μM of Ritonavir)", "setting": "[3]; pH 7.4", "result": 1.5, "unit": "h"}
    ]}
  ]
}
